Data as given in US6620843B2, “Anticancer treatment using triptolide prodrugs” (priority 2001, dated 2003).
Like-named read-outs stand apart in the source and are kept apart here.

Test system: HT-29 human colon tumors
Procedure: Human Tumor Xenograft Study. An HT-29 human colon cancer cell line was purchased from ATCC (Manassas, Va.). Cells were cultured in DMEM (Dulbecco's Modified Eagle's Medium) from GIBIOBRL (Grand Island, N.Y.) with 10% fetal bovine serum (FBS) supplemented with L-glutamine and Penicillin/Streptomycin. The tumor cells were harvested when cultures reached 80-90% confluence. The supernatants were discarded and the cell pellets were suspended to 1×10^8 cells/ml in DMEM medium without FBS. HT-29 cells (5×10^6) were implanted intradermally on the back of each mouse. Tumor size was monitored by measuring the length (L), width (W), and height (H) of each tumor and calculating tumor volume (Vol=½×4/3π×(L/2)×(W/2)×H).
Mice bearing human tumor cell xenografts were treated with PG490-88 IP daily for 5 days per week. The compound was administered as the sodium salt. CPT-11 was administered IV twice per week. 5-FU was given IP daily for 5 days per week. The stock solutions of each therapeutic agent were diluted in 0.9% NaCl for dosing. The agents were given to mice at 100 μl per 10 g of mouse body weight. Mice were dosed for two weeks, and 0.9% NaCl was used as the vehicle control. Tumor volume was monitored, and toxicity of the chemotherapeutic treatment was monitored by weighing the mice every day.

## CCc1c2c(nc3ccc(OC(=O)N4CCC(N5CCCCC5)CC4)cc13)-c1cc3c(c(=O)n1C2)COC(=O)[C@]3(O)CC [CPT-11, irinotecan, reference compound]
CPT-11 22 mg/kg
  tumor growth inhibition (in words): slight to moderate

## CC(C)[C@]12O[C@H]1[C@@H]1O[C@]13[C@]1(O[C@H]1C[C@H]1C4=C(CC[C@@]13C)C(=O)OC4)[C@@H]2OC(=O)CCC(=O)O [PG490-88, triptolide 14-succinate]
0.125 mg/kg, by day 16
  tumor growth inhibition (in words): slightly inhibited
0.25 mg/kg, by day 16
  tumor growth inhibition (in words): moderate inhibition
0.75 mg/kg, by day 16
  tumor growth inhibition (in words): strongly inhibited tumor growth and induced tumor regression
0.125-0.75 mg/kg
  tumor growth inhibition, dose dependence (in words): inhibited HT-29 tumor growth in a dose-dependent manner
PG490-88 0.125 mg/kg IP daily 5 days per week, day 16 vs initial value, vehicle control 721%
  percent increase in mean tumor volume at day 16: 462%
PG490-88 0.25 mg/kg IP daily 5 days per week, day 16 vs initial value, vehicle control 721%
  percent increase in mean tumor volume at day 16: 131%
PG490-88 0.75 mg/kg IP daily 5 days per week, day 16
  percent decrease in mean tumor volume at day 16 from the initial value: 54%
PG490-88 0.75 mg/kg, day 9
  mean tumor volume at day 9 (in words): decreased from the day 5 value to approximately the initial value

## O=c1[nH]cc(F)c(=O)[nH]1 [5-FU, 5-fluorouracil, reference compound]
5-FU 20 mg/kg
  tumor growth inhibition (in words): only slightly inhibited tumor growth
5-FU 20 mg/kg IP daily 5 days per week, day 16, control group 721%
  percent increase in mean tumor volume at day 16: 470%
mouse, in vivo
  toxicity in tumor-bearing mice: showed signs of toxicity
